The results in this text go back to patent US8575153B2 (Kowa Company, Ltd., priority 2008, dated 2013).

Data set [1] concerns the target Recombinant human JAK3 enzyme (JAK3 kinase region; Ala795-Ser1124) (Homo sapiens, UniProt P52333). The data set can be described thus: JAK3 Kinase Assay (Kinase-Glo luminescent, ATP consumption). The note with it: read-out: Inhibition rate (%) of JAK3 kinase activity. (In general: Kinase-Glo measures the ATP left after a reaction by luminescence.)
Description: Recombinant human JAK3 enzyme (JAK3 kinase region; Ala795-Ser1124) was purchased from Carna Biosciences, Inc.
The reaction was conducted in a kinase buffer (reaction volume: a total of 50 μl) containing 8 mM MOPS (pH 7.0), 0.2 mM EDTA, a test compound solution prepared to each concentration and 0.5 μg/ml JAK3 enzyme using a 96-well polystyrene plate (clear-bottom white-wall). […] After incubating them at room temperature for 2 hours, 50 μl of Kinase-Glo Luminescent Kinase Assay reagent (Promega) was added to each well, and further incubated at room temperature for 10 minutes. Using a chemiluminescence microplate reader MicroLumat LB96P (Berthold), chemiluminescence intensity was measured to quantitate the amount of ATP remaining after reaction. From the amount of ATP consumed in the phosphorylation reaction, the inhibition rate (%) of JAK3 kinase activity was determined.

Sequence of Recombinant human JAK3 enzyme (JAK3 kinase region; Ala795-Ser1124) (P52333 795-1124): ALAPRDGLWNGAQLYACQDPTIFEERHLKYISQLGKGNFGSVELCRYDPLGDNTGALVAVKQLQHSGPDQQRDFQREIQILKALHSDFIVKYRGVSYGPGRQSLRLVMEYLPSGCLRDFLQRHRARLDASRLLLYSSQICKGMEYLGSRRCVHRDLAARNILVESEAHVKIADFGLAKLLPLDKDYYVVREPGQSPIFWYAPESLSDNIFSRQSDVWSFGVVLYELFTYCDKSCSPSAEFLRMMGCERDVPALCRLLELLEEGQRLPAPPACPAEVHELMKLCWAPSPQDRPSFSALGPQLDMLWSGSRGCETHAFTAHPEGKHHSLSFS

One may read the melting point as the temperature of the solid-liquid transition. For orientation: inhibition means the share of the control response that was lost under treatment. As for `CCCC(=O)N1CCN(c2ccc(Nc3cc(NCc4ccccc4)c(C(N)=O)cn3)cc2)CC1` [Example 258, 4-(benzylamino)-6-{[4-(4-butanoylpiperazin-1-yl)phenyl]amino}pyridine-3-carboxyamide], the melting point is 233.5 to 235.2 °C (dec.). In addition, in data set [1], the inhibition at 0.1 µM was 60%.
As to `CC(C)C(=O)N1CCN(c2ccc(Nc3cc(NCc4ccccc4)c(C(N)=O)cn3)cc2)CC1` [Example 259, 4-(benzylamino)-6-({4-[4-(2-methylpropanoyl)piperazin-1-yl]phenyl}amino)pyridine-3-carboxyamide], the melting point is 218 to 220 °C (dec.). The inhibition at 0.1 µM in data set [1] came to 67%.
On to `CCN(CC)CC(=O)N1CCN(c2ccc(Nc3cc(NCc4cccc([N+](=O)[O-])c4)c(C(N)=O)cn3)cc2)CC1` [Example 276, 6-({4-[4-(N,N-diethylglycyl)piperazin-1-yl]phenyl}amino)-4-[(3-nitrobenzyl)amino]pyridine-3-carboxyamide], for which the melting point is 190 to 191 °C (dec.). Also, the inhibition at 0.1 µM in data set [1] came to 68%.
For the molecule `NC(=O)c1cnc(Nc2ccc(NC3CCNCC3)cc2)cc1NCc1ccccc1` [Example 289, 4-(benzylamino)-6-{[4-(piperidin-4-ylamino)phenyl]amino}pyridine-3-carboxyamide], the melting point is 169 to 172 °C (dec.). The inhibition at 0.1 µM in data set [1] came out at 74%.
The matching figures for `CC(C)NC(=O)N1CCC(Nc2ccc(Nc3cc(NCc4ccccc4)c(C(N)=O)cn3)cc2)CC1` [Example 291, 4-(benzylamino)-6-[(4-{[1-(propan-2-ylcarbamoyl)piperidin-4-yl]amino}phenyl)amino]pyridine-3-carboxyamide]: 166 to 167 °C and 79%.
